Experimental data from ChEMBL document CHEMBL3885881, “DrugMatrix”.

Species: Rattus norvegicus
Experiment: DrugMatrix - Regimen: Daily Repeat
Assay type: toxicity, organism-based, Sprague-Dawley
Design: regimen Daily Repeat, gender Male, age 6-8 weeks
Details: in vivo, po, route oral GAVAGE, vehicle .5 % CMC; for ABSOLUTE BASOPHIL / ABSOLUTE EOSINOPHIL / ABSOLUTE LYMPHOCYTE / ABSOLUTE MONOCYTE / ABSOLUTE SEGMENTED NEUTROPHIL / BASOPHIL / EOSINOPHIL / ERYTHROCYTE COUNT / HEMATOCRIT / HEMOGLOBIN / LEUKOCYTE COUNT / LYMPHOCYTE / MEAN CORPUSCULAR HEMOGLOBIN / MEAN CORPUSCULAR HEMOGLOBIN CONCENTRATION / MEAN CORPUSCULAR VOLUME / MONOCYTE / NEUTROPHIL / NUCLEATED RED BLOOD CELLS / PLATELET COUNT: tissue Blood; for ALANINE AMINOTRANSFERASE / ALBUMIN / ALKALINE PHOSPHATASE / ASPARTATE AMINOTRANSFERASE / BLOOD UREA NITROGEN / CARBON DIOXIDE / CHLORIDE / CHOLESTEROL / CREATINE PHOSPHOKINASE / CREATININE / GLUCOSE / LACTATE DEHYDROGENASE / LIPASE / PHOSPHORUS / POTASSIUM / SODIUM / TOTAL BILIRUBIN / TOTAL PROTEIN / URIC ACID: tissue Plasma
[1] = 10 mg/kg, 72 h, dose level Low, time 3 day
[2] = 10 mg/kg, 120 h, dose level Low, time 5 day
[3] = 1200 mg/kg, 72 h, dose level High, time 3 day
[4] = 1200 mg/kg, 120 h, dose level High, time 5 day

SMILES: CC(C)c1nc(CN(C)C(=O)N[C@H](C(=O)N[C@@H](Cc2ccccc2)C[C@H](O)[C@H](Cc2ccccc2)NC(=O)OCc2cncs2)C(C)C)cs1 [RITONAVIR]
- ABSOLUTE BASOPHIL [1]: 0 CELLS/uL
- ABSOLUTE EOSINOPHIL [1]: 0 CELLS/uL
- ABSOLUTE LYMPHOCYTE [1]: 16363 CELLS/uL
- ABSOLUTE MONOCYTE [1]: 133.67 CELLS/uL
- ABSOLUTE SEGMENTED NEUTROPHIL [1]: 2103.33 CELLS/uL
- BASOPHIL [1]: 0%
- EOSINOPHIL [1]: 0%
- ERYTHROCYTE COUNT [1]: 5.55 x10E6/uL
- HEMATOCRIT [1]: 35.17%
- HEMOGLOBIN [1]: 13.33 G/DL
- LEUKOCYTE COUNT [1]: 18.6 x10E3/uL
- LYMPHOCYTE [1]: 88%
- MEAN CORPUSCULAR HEMOGLOBIN [1]: 24.03 pg
- MEAN CORPUSCULAR HEMOGLOBIN CONCENTRATION [1]: 37.93 G/DL
- MEAN CORPUSCULAR VOLUME [1]: 63.37 fL
- MONOCYTE [1]: 0.67%
- NEUTROPHIL [1]: 11.33%
- NUCLEATED RED BLOOD CELLS [1]: 0 /100WBC
- PLATELET COUNT [1]: 1318 x10E3/uL
- ALANINE AMINOTRANSFERASE [1]: 56.67 u/L
- ALBUMIN [1]: 4.1 G/DL
- ALKALINE PHOSPHATASE [1]: 325.33 u/L
- ASPARTATE AMINOTRANSFERASE [1]: 93.33 u/L
- BLOOD UREA NITROGEN [1]: 14 mg/dL
- CARBON DIOXIDE [1]: 29 mmol/L
- CHLORIDE [1]: 101 MEQ/L
- CHOLESTEROL [1]: 90.67 mg/dL
- CREATINE PHOSPHOKINASE [1]: 297.33 u/L
- CREATININE [1]: 0.23 mg/dL
- GLUCOSE [1]: 152 mg/dL
- LACTATE DEHYDROGENASE [1]: 319.33 u/L
- LIPASE [1]: 10.67 u/L
- PHOSPHORUS [1]: 12.83 mg/dL
- POTASSIUM [1]: 6.89 MEQ/L
- SODIUM [1]: 145.67 MEQ/L
- TOTAL BILIRUBIN [1]: 0.13 mg/dL
- TOTAL PROTEIN [1]: 5.77 G/DL
- URIC ACID [1]: 1.67 mg/dL
- ABSOLUTE BASOPHIL [2]: 0 CELLS/uL
- ABSOLUTE EOSINOPHIL [2]: 71.67 CELLS/uL
- ABSOLUTE LYMPHOCYTE [2]: 18278.33 CELLS/uL
- ABSOLUTE MONOCYTE [2]: 105.33 CELLS/uL
- ABSOLUTE SEGMENTED NEUTROPHIL [2]: 1678 CELLS/uL
- BASOPHIL [2]: 0%
- EOSINOPHIL [2]: 0.33%
- ERYTHROCYTE COUNT [2]: 6.19 x10E6/uL
- HEMATOCRIT [2]: 37%
- HEMOGLOBIN [2]: 13.97 G/DL
- LEUKOCYTE COUNT [2]: 20.13 x10E3/uL
- LYMPHOCYTE [2]: 90.33%
- MEAN CORPUSCULAR HEMOGLOBIN [2]: 22.63 pg
- MEAN CORPUSCULAR HEMOGLOBIN CONCENTRATION [2]: 37.73 G/DL
- MEAN CORPUSCULAR VOLUME [2]: 59.93 fL
- MONOCYTE [2]: 0.67%
- NEUTROPHIL [2]: 8.67%
- NUCLEATED RED BLOOD CELLS [2]: 0 /100WBC
- PLATELET COUNT [2]: 1433.33 x10E3/uL
- ALANINE AMINOTRANSFERASE [2]: 50.67 u/L
- ALBUMIN [2]: 4.4 G/DL
- ALKALINE PHOSPHATASE [2]: 359.67 u/L
- ASPARTATE AMINOTRANSFERASE [2]: 81.67 u/L
- BLOOD UREA NITROGEN [2]: 15.33 mg/dL
- CARBON DIOXIDE [2]: 27.67 mmol/L
- CHLORIDE [2]: 102 MEQ/L
- CHOLESTEROL [2]: 79.67 mg/dL
- CREATINE PHOSPHOKINASE [2]: 237 u/L
- CREATININE [2]: 0.21 mg/dL
- GLUCOSE [2]: 148.67 mg/dL
- LACTATE DEHYDROGENASE [2]: 188 u/L
- LIPASE [2]: 9.33 u/L
- PHOSPHORUS [2]: 13.17 mg/dL
- POTASSIUM [2]: 6.85 MEQ/L
- SODIUM [2]: 145.83 MEQ/L
- TOTAL BILIRUBIN [2]: 0.17 mg/dL
- URIC ACID [2]: 1.63 mg/dL
- ABSOLUTE BASOPHIL [3]: 0 CELLS/uL
- ABSOLUTE EOSINOPHIL [3]: 142.67 CELLS/uL
- ABSOLUTE LYMPHOCYTE [3]: 15572 CELLS/uL
- ABSOLUTE MONOCYTE [3]: 334 CELLS/uL
- ABSOLUTE SEGMENTED NEUTROPHIL [3]: 651.33 CELLS/uL
- BASOPHIL [3]: 0%
- EOSINOPHIL [3]: 0.67%
- ERYTHROCYTE COUNT [3]: 5.91 x10E6/uL
- HEMATOCRIT [3]: 36.97%
- HEMOGLOBIN [3]: 14.63 G/DL
- LEUKOCYTE COUNT [3]: 16.7 x10E3/uL
- LYMPHOCYTE [3]: 93.67%
- MEAN CORPUSCULAR HEMOGLOBIN [3]: 24.77 pg
- MEAN CORPUSCULAR HEMOGLOBIN CONCENTRATION [3]: 39.6 G/DL
- MEAN CORPUSCULAR VOLUME [3]: 62.53 fL
- MONOCYTE [3]: 2%
- NEUTROPHIL [3]: 3.67%
- NUCLEATED RED BLOOD CELLS [3]: 0 /100WBC
- PLATELET COUNT [3]: 1284 x10E3/uL
- ALANINE AMINOTRANSFERASE [3]: 50 u/L
- ALBUMIN [3]: 3.97 G/DL
- ALKALINE PHOSPHATASE [3]: 314 u/L
- ASPARTATE AMINOTRANSFERASE [3]: 75 u/L
- BLOOD UREA NITROGEN [3]: 13.67 mg/dL
- CARBON DIOXIDE [3]: 31.67 mmol/L
- CHLORIDE [3]: 100.33 MEQ/L
- CHOLESTEROL [3]: 86.67 mg/dL
- CREATINE PHOSPHOKINASE [3]: 162.33 u/L
- CREATININE [3]: 0.16 mg/dL
- GLUCOSE [3]: 153.67 mg/dL
- LACTATE DEHYDROGENASE [3]: 134.67 u/L
- LIPASE [3]: 10.33 u/L
- PHOSPHORUS [3]: 11.4 mg/dL
- POTASSIUM [3]: 5.99 MEQ/L
- SODIUM [3]: 144.87 MEQ/L
- TOTAL BILIRUBIN [3]: 0.2 mg/dL
- TOTAL PROTEIN [3]: 5.67 G/DL
- URIC ACID [3]: 1.33 mg/dL
- ABSOLUTE BASOPHIL [4]: 0 CELLS/uL
- ABSOLUTE EOSINOPHIL [4]: 0 CELLS/uL
- ABSOLUTE LYMPHOCYTE [4]: 16888.67 CELLS/uL
- ABSOLUTE MONOCYTE [4]: 206.67 CELLS/uL
- ABSOLUTE SEGMENTED NEUTROPHIL [4]: 871.33 CELLS/uL
- BASOPHIL [4]: 0%
- EOSINOPHIL [4]: 0%
- ERYTHROCYTE COUNT [4]: 6.28 x10E6/uL
- HEMATOCRIT [4]: 37.7%
- HEMOGLOBIN [4]: 14.77 G/DL
- LEUKOCYTE COUNT [4]: 17.97 x10E3/uL
- LYMPHOCYTE [4]: 94%
- MEAN CORPUSCULAR HEMOGLOBIN [4]: 23.53 pg
- MEAN CORPUSCULAR HEMOGLOBIN CONCENTRATION [4]: 39.17 G/DL
- MEAN CORPUSCULAR VOLUME [4]: 60.2 fL
- MONOCYTE [4]: 1%
- NEUTROPHIL [4]: 5%
- NUCLEATED RED BLOOD CELLS [4]: 0 /100WBC
- PLATELET COUNT [4]: 1230 x10E3/uL
- ALANINE AMINOTRANSFERASE [4]: 59.67 u/L
- ALBUMIN [4]: 4 G/DL
- ALKALINE PHOSPHATASE [4]: 219 u/L
- ASPARTATE AMINOTRANSFERASE [4]: 104.67 u/L
- BLOOD UREA NITROGEN [4]: 16 mg/dL
- CARBON DIOXIDE [4]: 22.33 mmol/L
- CHLORIDE [4]: 106 MEQ/L
- CHOLESTEROL [4]: 79 mg/dL
- CREATINE PHOSPHOKINASE [4]: 482 u/L
- CREATININE [4]: 0.24 mg/dL
- GLUCOSE [4]: 155.33 mg/dL
- LACTATE DEHYDROGENASE [4]: 180.33 u/L
- LIPASE [4]: 10.67 u/L
- PHOSPHORUS [4]: 10.5 mg/dL
- POTASSIUM [4]: 7.89 MEQ/L
- SODIUM [4]: 148.6 MEQ/L
- TOTAL BILIRUBIN [4]: 0.17 mg/dL
- TOTAL PROTEIN [4]: 6.03 G/DL
- URIC ACID [4]: 1.8 mg/dL
